The NIST ThermoML archive (doi:10.1021/je700438d)

Assay: mn = molality of the nth substance listed, in mol/kg
Settings: Liquid, Vibrating tube method

[Cl-].[Li+] [lithium chloride] + CCO
Settings | mass density [kg/m3]
348.15 K, 20090 kPa, m1 = 0.3023 | 772.2
348.15 K, 20140 kPa, m1 = 1.222 | 800.25
348.15 K, 20480 kPa, m1 = 0.5873 | 781.78
348.15 K, 25070 kPa, m1 = 1.222 | 804.33
348.15 K, 25320 kPa, m1 = 0.5873 | 786.04
348.15 K, 25420 kPa, m1 = 2.022 | 826.11
348.15 K, 25640 kPa, m1 = 2.88 | 846.96
348.15 K, 25840 kPa, m1 = 0.1049 | 770.86
348.15 K, 25860 kPa, m1 = 0.3023 | 777.45
348.15 K, 30060 kPa, m1 = 0.3023 | 781.03
348.15 K, 30160 kPa, m1 = 2.022 | 829.46
348.15 K, 30410 kPa, m1 = 1.222 | 808.41
348.15 K, 30610 kPa, m1 = 0.5873 | 790.37
348.15 K, 30710 kPa, m1 = 0.1049 | 775.12
348.15 K, 30840 kPa, m1 = 2.88 | 850.58
348.15 K, 35190 kPa, m1 = 2.88 | 853.39
348.15 K, 35240 kPa, m1 = 0.1049 | 778.84
348.15 K, 35420 kPa, m1 = 1.222 | 811.91
348.15 K, 35610 kPa, m1 = 2.022 | 832.94
348.15 K, 35840 kPa, m1 = 0.3023 | 785.62
348.15 K, 35840 kPa, m1 = 0.5873 | 794.33
348.15 K, 39860 kPa, m1 = 0.5873 | 797.14
348.15 K, 39860 kPa, m1 = 2.88 | 856.19
348.15 K, 39930 kPa, m1 = 0.1049 | 782.45
348.15 K, 39940 kPa, m1 = 0.3023 | 788.64
348.15 K, 39960 kPa, m1 = 2.022 | 835.44
348.15 K, 39970 kPa, m1 = 1.222 | 814.81
373.15 K, 290 kPa, m1 = 0.1049 | 717.74
373.15 K, 310 kPa, m1 = 0.3023 | 725.29
373.15 K, 320 kPa, m1 = 2.022 | 781.71
373.15 K, 840 kPa, m1 = 1.222 | 757.56
373.15 K, 960 kPa, m1 = 0.5873 | 736.55
373.15 K, 980 kPa, m1 = 2.88 | 805.91
373.15 K, 5060 kPa, m1 = 0.3023 | 731.82
373.15 K, 5060 kPa, m1 = 1.222 | 762.98
373.15 K, 5140 kPa, m1 = 0.1049 | 724.52
373.15 K, 5140 kPa, m1 = 2.88 | 810.39
373.15 K, 5420 kPa, m1 = 0.5873 | 742.51
373.15 K, 5860 kPa, m1 = 2.022 | 788.43
373.15 K, 9980 kPa, m1 = 2.88 | 815.52
373.15 K, 10060 kPa, m1 = 1.222 | 769.02
373.15 K, 10070 kPa, m1 = 0.3023 | 738.32
373.15 K, 10080 kPa, m1 = 0.1049 | 731.05
373.15 K, 10090 kPa, m1 = 0.5873 | 748.41
373.15 K, 10090 kPa, m1 = 2.022 | 793.18
373.15 K, 14620 kPa, m1 = 2.88 | 819.69
373.15 K, 15020 kPa, m1 = 0.3023 | 744.36
373.15 K, 15420 kPa, m1 = 0.1049 | 737.69
373.15 K, 15720 kPa, m1 = 2.022 | 799
373.15 K, 15740 kPa, m1 = 1.222 | 775.35
373.15 K, 15850 kPa, m1 = 0.5873 | 755.19
373.15 K, 20080 kPa, m1 = 0.1049 | 743.13
373.15 K, 20090 kPa, m1 = 0.5873 | 759.84
373.15 K, 20310 kPa, m1 = 0.3023 | 750.38
373.15 K, 20310 kPa, m1 = 2.022 | 803.31
373.15 K, 20340 kPa, m1 = 1.222 | 780.06
373.15 K, 21420 kPa, m1 = 2.88 | 825.53
373.15 K, 24940 kPa, m1 = 2.88 | 828.37
373.15 K, 25050 kPa, m1 = 2.022 | 807.37
373.15 K, 25080 kPa, m1 = 1.222 | 784.55
373.15 K, 25410 kPa, m1 = 0.1049 | 748.94
373.15 K, 25410 kPa, m1 = 0.3023 | 755.77
373.15 K, 25840 kPa, m1 = 0.5873 | 765.68
373.15 K, 30060 kPa, m1 = 0.3023 | 760.33
373.15 K, 30060 kPa, m1 = 2.022 | 811.2
373.15 K, 30150 kPa, m1 = 0.5873 | 769.7
373.15 K, 30150 kPa, m1 = 2.88 | 832.41
373.15 K, 30260 kPa, m1 = 0.1049 | 753.85
373.15 K, 30410 kPa, m1 = 1.222 | 789.12
373.15 K, 35160 kPa, m1 = 0.3023 | 764.94
373.15 K, 35410 kPa, m1 = 2.022 | 814.8
373.15 K, 35740 kPa, m1 = 2.88 | 836.3
373.15 K, 35840 kPa, m1 = 0.1049 | 759.05
373.15 K, 35840 kPa, m1 = 1.222 | 793.28
373.15 K, 35980 kPa, m1 = 0.5873 | 774.65
373.15 K, 39820 kPa, m1 = 1.222 | 796.01
373.15 K, 39910 kPa, m1 = 0.1049 | 762.54
373.15 K, 39960 kPa, m1 = 0.3023 | 768.9
373.15 K, 39970 kPa, m1 = 0.5873 | 777.73
373.15 K, 39970 kPa, m1 = 2.022 | 817.45
373.15 K, 39980 kPa, m1 = 2.88 | 839.22
398.15 K, 680 kPa, m1 = 0.3023 | 696.61
398.15 K, 740 kPa, m1 = 0.1049 | 688.68
398.15 K, 740 kPa, m1 = 2.022 | 758.72
398.15 K, 960 kPa, m1 = 1.222 | 731.58
398.15 K, 1010 kPa, m1 = 2.88 | 785.44
398.15 K, 1020 kPa, m1 = 0.5873 | 708.33
398.15 K, 4860 kPa, m1 = 1.222 | 737.73
398.15 K, 5010 kPa, m1 = 0.1049 | 695.99
398.15 K, 5030 kPa, m1 = 2.022 | 765.06
398.15 K, 5070 kPa, m1 = 0.3023 | 704.02
398.15 K, 5070 kPa, m1 = 2.88 | 790.37
398.15 K, 5740 kPa, m1 = 0.5873 | 716.08
398.15 K, 9680 kPa, m1 = 1.222 | 744.82
398.15 K, 10060 kPa, m1 = 0.3023 | 711.93
398.15 K, 10060 kPa, m1 = 0.5873 | 722.74
398.15 K, 10140 kPa, m1 = 2.88 | 796.07
398.15 K, 10420 kPa, m1 = 2.022 | 772.34
398.15 K, 10450 kPa, m1 = 0.1049 | 704.75
398.15 K, 15060 kPa, m1 = 1.222 | 752.07
398.15 K, 15060 kPa, m1 = 2.022 | 778
398.15 K, 15090 kPa, m1 = 0.3023 | 719.36
398.15 K, 15280 kPa, m1 = 2.88 | 801.31
398.15 K, 15420 kPa, m1 = 0.1049 | 712.2
398.15 K, 15960 kPa, m1 = 0.5873 | 731.15
398.15 K, 20010 kPa, m1 = 2.88 | 805.83
398.15 K, 20090 kPa, m1 = 0.1049 | 718.73
398.15 K, 20140 kPa, m1 = 0.3023 | 726.27
398.15 K, 20350 kPa, m1 = 0.5873 | 736.9
398.15 K, 20470 kPa, m1 = 1.222 | 758.65
398.15 K, 20740 kPa, m1 = 2.022 | 784.18
398.15 K, 25230 kPa, m1 = 0.3023 | 732.68
398.15 K, 25320 kPa, m1 = 2.88 | 810.7
398.15 K, 25420 kPa, m1 = 0.5873 | 742.99
398.15 K, 25610 kPa, m1 = 2.022 | 788.8
398.15 K, 25620 kPa, m1 = 1.222 | 764.26
398.15 K, 25840 kPa, m1 = 0.1049 | 726.13
398.15 K, 30050 kPa, m1 = 0.5873 | 748.05
398.15 K, 30070 kPa, m1 = 0.3023 | 738.24
398.15 K, 30070 kPa, m1 = 2.88 | 814.57
398.15 K, 30090 kPa, m1 = 2.022 | 792.51
398.15 K, 30150 kPa, m1 = 0.1049 | 731.22
398.15 K, 30410 kPa, m1 = 1.222 | 768.9
398.15 K, 34950 kPa, m1 = 0.5873 | 752.88
398.15 K, 34980 kPa, m1 = 2.88 | 818
398.15 K, 35240 kPa, m1 = 0.3023 | 743.62
398.15 K, 35810 kPa, m1 = 2.022 | 796.49
398.15 K, 35860 kPa, m1 = 0.1049 | 737.37
398.15 K, 35950 kPa, m1 = 1.222 | 773.57
398.15 K, 39860 kPa, m1 = 0.1049 | 741.26
398.15 K, 39920 kPa, m1 = 0.5873 | 757.22
398.15 K, 39940 kPa, m1 = 1.222 | 776.48
398.15 K, 39940 kPa, m1 = 2.022 | 798.83
398.15 K, 39970 kPa, m1 = 0.3023 | 748.04
398.15 K, 39980 kPa, m1 = 2.88 | 821.9
